Assays:
ECHCG [1] = experiment: Post-emergence herbicidal action against ECHCG; assay type: in vivo, Echinochloa crus-galli
Method in brief: (§1)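 Post-emergence greenhouse test; one-leaf stage, 2–3 wk post-sowing, sandy loam. Foliar spray of WP/EC in water, 600–800 l/ha, +0.2% wetting agent. Visual % action at ~3 wk vs untreated (100% = plants dead).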

ABUTH [2] = experiment: Pre-emergence herbicidal action against ABUTH; assay type: in vivo, Abutilon theophrasti
Method in brief: (§2)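 Herbicidal effect was assessed 3 weeks after treatment by visual comparison with untreated controls, 100% denoting dead plants. Aqueous WP or EC preparations had been applied at 600 to 800 l/ha with 0.2% wetting agent to the soil covering freshly sown seeds.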

ECHCG [3] = experiment: Pre-emergence herbicidal action against ECHCG; assay type: in vivo, Echinochloa crus-galli
Method in brief: as §2

SETVI [4] = experiment: Pre-emergence herbicidal action against SETVI; assay type: in vivo, Setaria viridis
Method in brief: as §2

VERPE [5] = experiment: Post-emergence herbicidal action against VERPE; assay type: in vivo, Veronica persica; details: 20 g/ha
Method in brief: as §1

AMARE [6] = experiment: Pre-emergence herbicidal action against AMARE; assay type: in vivo, Amaranthus retroflexus
Method in brief: as §2

AVEFA = experiment: Pre-emergence herbicidal action against AVEFA; assay type: in vivo, Avena fatua
Method in brief: as §2

PHBPU [7] = experiment: Pre-emergence herbicidal action against PHBPU; assay type: in vivo, Pharbitis purpurea
Method in brief: as §2

ALOMY [8] = experiment: Post-emergence herbicidal action against ALOMY; assay type: in vivo, Alopecurus myosuroides; details: dosage 20 g/ha, visual assessment about 3 weeks after treatment vs untreated controls
Method in brief: as §1

VERPE [9] = experiment: Pre-emergence herbicidal action against VERPE; assay type: in vivo, Veronica persica; details: Veronica persica, 504 h, dosage 80 g/ha
Method in brief: as §2

SETVI [10] = experiment: Post-emergence herbicidal action against SETVI; assay type: in vivo, Setaria viridis; details: Setaria viridis, 504 h
Method in brief: as §1

LOLRI = experiment: Pre-emergence herbicidal action against LOLRI; assay type: in vivo, Lolium rigidum; details: 80 g/ha
Method in brief: as §2

DIGSA [11] = experiment: Pre-emergence herbicidal action against DIGSA; assay type: in vivo, Digitaria sanguinalis
Method in brief: as §2

ALOMY [12] = experiment: Pre-emergence herbicidal action against ALOMY; assay type: in vivo, Alopecurus myosuroides; details: pre-emergence
Method in brief: as §2

MATIN [13] = experiment: Pre-emergence herbicidal action against MATIN; assay type: in vivo, Matricaria inodora
Method in brief: as §2

AMARE [14] = experiment: Post-emergence herbicidal action against AMARE; assay type: in vivo, Amaranthus retroflexus; details: 20 g/ha, visual assessment about 3 weeks after treatment, 100% = plants have died, 0% = like control plants
Method in brief: as §1

ABUTH [15] = experiment: Post-emergence herbicidal action against ABUTH; assay type: in vivo, Abutilon theophrasti; details: Abutilon theophrasti, 504 h, visual assessment about 3 weeks after treatment vs untreated controls
Method in brief: as §1

PHBPU [16] = experiment: Post-emergence herbicidal action against PHBPU; assay type: in vivo, Pharbitis purpurea
Method in brief: as §1

VIOTR [17] = experiment: Pre-emergence herbicidal action against VIOTR; assay type: in vivo, Viola tricolor
Method in brief: as §2

DIGSA [18] = experiment: Post-emergence herbicidal action against DIGSA; assay type: in vivo, Digitaria sanguinalis
Method in brief: as §1

VIOTR [19] = experiment: Post-emergence herbicidal action against VIOTR; assay type: in vivo, Viola tricolor
Method in brief: as §1

MATIN [20] = experiment: Post-emergence herbicidal action against MATIN; assay type: in vivo, Matricaria inodora; details: dosage 20 g/ha
Method in brief: as §1

[21] = 80 g/ha, scored visually after 3 weeks vs untreated controls (100% = plants have died, 0% = like control plants)

Work on `Cc1nnc(NC(=O)c2ccc(C(F)(F)F)c(C(=O)NC(C)C)c2C)o1` [Example 6-255] yielded a pest or weed control at 5 g/ha (ECHCG [1]; Echinochloa crus-galli, 504 h, dosage 5 g/ha) of 90%, a pest or weed control at 20 g/ha (ECHCG [1]; Echinochloa crus-galli, 504 h, dosage 20 g/ha) of 100% and a pest or weed control at 80 g/ha (ABUTH [2]; Abutilon theophrasti, 504 h, 80 g/ha, scored visually after 3 weeks vs untreated controls (100% = plants have died, 0% = like control plants)) of 100%. The pest or weed control at 20 g/ha (ABUTH [2]; Abutilon theophrasti, 504 h, dosage 20 g/ha, scored visually after 3 weeks vs untreated controls, 100% = plants have died, 0% = like control plants, read-out: Pre-emergence action against ABUTH (herbicidal activity in percent)) was 100%, the pest or weed control at 80 g/ha (ECHCG [3]; Echinochloa crus-galli, 504 h, 80 g/ha) was 100% and the pest or weed control at 20 g/ha (SETVI [4]; Setaria viridis, 504 h, dosage 20 g/ha) was 100%. The pest or weed control at 80 g/ha (SETVI [4]; Setaria viridis, 504 h, dosage 80 g/ha) was 100%, the pest or weed control at 20 g/ha (VERPE [5]; Veronica persica, 504 h) was 80% and the pest or weed control at 20 g/ha (AMARE [6]; Amaranthus retroflexus, 504 h, 20 g/ha, scored visually after 3 weeks vs untreated controls, 100% = plants have died, 0% = like control plants) was 100%. The pest or weed control at 80 g/ha (AMARE [6]; Amaranthus retroflexus, 504 h, 80 g/ha, scored visually after 3 weeks vs untreated controls, 100% = plants have died, 0% = like control plants) was 100%, the pest or weed control at 80 g/ha (AVEFA; Avena fatua, 504 h, 80 g/ha, pre-emergence) was 80% and the pest or weed control at 80 g/ha (PHBPU [7]; Ipomoea purpurea, 504 h, dosage 80 g/ha) was 90%. The pest or weed control at 20 g/ha (ALOMY [8]; Alopecurus myosuroides, 504 h) was 90%, the pest or weed control at 80 g/ha (VERPE [9]) was 90% and the pest or weed control at 5 g/ha (SETVI [10]; dosage 5 g/ha) was 80%. It also gave a pest or weed control at 20 g/ha (SETVI [10]; dosage 20 g/ha) of 90%, a pest or weed control at 80 g/ha (LOLRI; Lolium rigidum, 504 h) of 80% and a pest or weed control at 20 g/ha (DIGSA [11]; Digitaria sanguinalis, 504 h, dosage 20 g/ha) of 100%. The pest or weed control at 80 g/ha (DIGSA [11]; Digitaria sanguinalis, 504 h, dosage 80 g/ha) was 100%, the pest or weed control at 80 g/ha (ALOMY [12]; Alopecurus myosuroides, 504 h, 80 g/ha, scored visually after 3 weeks vs untreated controls (100% = plants have died, 0% = like control plants)) was 100% and the pest or weed control at 20 g/ha (ALOMY [12]; Alopecurus myosuroides, 504 h, 20 g/ha, scored visually after 3 weeks, 100% = plants have died, 0% = like control plants) was 90%. For the same compound, the pest or weed control at 80 g/ha (MATIN [13]; Tripleurospermum inodorum, 504 h, dosage 80 g/ha) was 100%, the pest or weed control at 20 g/ha (AMARE [14]; Amaranthus retroflexus, 504 h) was 100% and the pest or weed control at 5 g/ha (ABUTH [15]; dosage 5 g/ha) was 90%. The pest or weed control at 20 g/ha (ABUTH [15]; dosage 20 g/ha) was 90%, the pest or weed control at 5 g/ha (PHBPU [16]; Ipomoea purpurea, 504 h, dosage 5 g/ha) was 90% and the pest or weed control at 20 g/ha (PHBPU [16]; Ipomoea purpurea, 504 h, dosage 20 g/ha) was 90%. For the same compound, the pest or weed control at 20 g/ha (VIOTR [17]; Viola tricolor, 504 h, dosage 20 g/ha) was 80%, the pest or weed control at 80 g/ha (VIOTR [17]; Viola tricolor, 504 h, dosage 80 g/ha) was 90% and the pest or weed control at 5 g/ha (DIGSA [18]; Digitaria sanguinalis, 504 h, 5 g/ha) was 90%. For the same compound, the pest or weed control at 20 g/ha (DIGSA [18]; Digitaria sanguinalis, 504 h, 20 g/ha) was 100%.

For `CCn1nnnc1NC(=O)c1ccc(C(F)(F)F)c(C(=O)NCC(F)F)c1Cl` [Example 2-134], the “Post-emergence action against ECHCG in %” value (ECHCG [1]; dosage 20 g/ha) was 90%, the “Pre-emergence action against ABUTH (herbicidal activity)” value (ABUTH [2]; [21]) was 100% and the “Pre-emergence action against ABUTH (herbicidal activity in percent)” value (ABUTH [2]; dosage 20 g/ha, scored visually after 3 weeks vs untreated controls, 100% = plants have died, 0% = like control plants) was 100%. For the same compound, the “Pre-emergence action against ECHCG in %” value (ECHCG [3]; 20 g/ha) was 80%, the “Pre-emergence action against ECHCG in %” value (ECHCG [3]; 80 g/ha) was 100% and the “Pre-emergence action against SETVI in %” value (SETVI [4]; dosage 20 g/ha) was 80%. For the same compound, the “Pre-emergence action against SETVI in %” value (SETVI [4]; dosage 80 g/ha) was 100%, the “Post-emergence action against VERPE in %” value (VERPE [5]) was 80% and the “Pre-emergence action against AMARE in %” value (AMARE [6]; 20 g/ha, scored visually after 3 weeks vs untreated controls, 100% = plants have died, 0% = like control plants) was 100%. The “Pre-emergence action against AMARE in %” value (AMARE [6]; [21]) was 100%, the “Pre-emergence action against AVEFA” value (AVEFA; 20 g/ha, scored visually after 3 weeks, 100% = plants have died, 0% = like control plants) was 80% and the “Pre-emergence action against AVEFA in %” value (AVEFA; 80 g/ha, pre-emergence) was 90%. The “Pre-emergence action against PHBPU in %” value (PHBPU [7]; dosage 20 g/ha) was 80%, the “Pre-emergence action against PHBPU in %” value (PHBPU [7]; dosage 80 g/ha) was 90% and the “Post-emergence action against ALOMY in %” value (ALOMY [8]) was 80%. For the same compound, the “Pre-emergence action against LOLRI in %” value (LOLRI) was 80%, the “Post-emergence action against VIOTR in %” value (VIOTR [19]; 5 g/ha) was 80% and the “Post-emergence action against VIOTR in %” value (VIOTR [19]; 20 g/ha) was 90%. The “Pre-emergence action against DIGSA in %” value (DIGSA [11]; dosage 20 g/ha) was 80%, the “Pre-emergence action against DIGSA in %” value (DIGSA [11]; dosage 80 g/ha) was 100% and the “Pre-emergence action against ALOMY (herbicidal activity)” value (ALOMY [12]; [21]) was 90%. The “Pre-emergence action against MATIN in %” value (MATIN [13]; dosage 20 g/ha) was 90%, the “Pre-emergence action against MATIN in %” value (MATIN [13]; dosage 80 g/ha) was 100% and the “Post-emergence action at 20 g/ha against AMARE in %” value (AMARE [14]) was 100%. The “Post-emergence action against PHBPU in %” value (PHBPU [16]; dosage 20 g/ha) was 90%, the “Pre-emergence action against VIOTR in %” value (VIOTR [17]; dosage 20 g/ha) was 100% and the “Pre-emergence action against VIOTR in %” value (VIOTR [17]; dosage 80 g/ha) was 100%. The “Post-emergence action against MATIN in %” value (MATIN [20]) was 80% and the “Post-emergence action against DIGSA” value (DIGSA [18]; 20 g/ha) was 80%.

— patent US12655116B2, “Substituted isophthalic acid diamides” (Bayer Aktiengesellschaft, priority 2020, dated 2026)
